From ChEMBL document CHEMBL5329155, “Synthesis and pharmacological evaluation of 1,3-diaryl substituted pyrazole based (thio)urea derivatives as potent antimicrobial agents against multi-drug resistant Staphylococcus aureus and Mycobacterium tuberculosis” (RSC Med Chem, 2023)
Values after ≈ are worked out from the molar mass of the structure shown.

Legend:
Staphylococcus aureus = test: Antibacterial activity against Staphylococcus aureus ATCC 29213 assessed as inhibition of bacterial growth measured for 18 to 24 hrs by broth dilution method; type: functional; conditions: time 18-24 hrs
[1] = test system: Mycobacterium tuberculosis; test: Antimycobacterial activity against Mycobacterium tuberculosis H37Rv ATCC 27294 assessed as inhibition of bacterial growth incubated for 18 to 24 hrs by broth dilution method; type: functional

## COc1cc(-c2ccn(-c3ccc(NC(=O)Nc4ccc(Cl)c(Cl)c4)cc3)n2)cc(OC)c1OC
Staphylococcus aureus
  MIC: > 64 µg/mL
[1]
  MIC: > 64 µg/mL

## COc1cccc(NC(=S)Nc2ccc(-n3ccc(-c4ccc(OC)c(OC)c4)n3)cc2)c1
Staphylococcus aureus
  MIC: > 64 µg/mL
[1]
  MIC: 16 µg/mL (≈ 34.7 µM)

## O=C(Nc1ccc(-n2ccc(-c3ccccc3)n2)cc1)Nc1ccc(F)cc1F
Staphylococcus aureus
  MIC: > 64 µg/mL
[1]
  MIC: > 64 µg/mL

## COc1ccc(-c2ccn(-c3ccc(NC(=O)Nc4cccc(C(F)(F)F)c4)cc3)n2)cc1OC
Staphylococcus aureus
  MIC: > 64 µg/mL
[1]
  MIC: 8 µg/mL (≈ 16.6 µM)

## COc1ccc(-c2ccn(-c3ccc(NC(=O)Nc4ccc(C)c(Cl)c4)cc3)n2)cc1OC
Staphylococcus aureus
  MIC: > 64 µg/mL
[1]
  MIC: 4 µg/mL (≈ 8.64 µM)

## COc1ccc(-c2ccn(-c3ccc(NC(=O)Nc4cccc(F)c4)cc3)n2)cc1OC
Staphylococcus aureus
  MIC: > 64 µg/mL
[1]
  MIC: 32 µg/mL (≈ 74 µM)

## COc1cc(-c2ccn(-c3ccc(NC(=O)Nc4ccc(F)cc4F)cc3)n2)cc(OC)c1OC
Staphylococcus aureus
  MIC: > 64 µg/mL
[1]
  MIC: 8 µg/mL (≈ 16.7 µM)

## O=C(NCc1ccccc1)Nc1ccc(-n2ccc(-c3ccc(Cl)cc3Cl)n2)cc1
Staphylococcus aureus
  MIC: > 64 µg/mL
[1]
  MIC: 64 µg/mL (≈ 146 µM)

## COc1ccc(NC(=S)Nc2ccc(-n3ccc(-c4ccc(OC)c(OC)c4)n3)cc2)c(OC)c1
Staphylococcus aureus
  MIC: > 64 µg/mL
[1]
  MIC: 32 µg/mL (≈ 65.2 µM)

## COc1ccc(-c2ccn(-c3ccc(NC(=O)Nc4ccc(F)cc4F)cc3)n2)cc1
Staphylococcus aureus
  MIC: > 64 µg/mL
[1]
  MIC: 8 µg/mL (≈ 19 µM)

## COc1ccc(-c2ccn(-c3ccc(NC(=S)Nc4cc(C)cc(C)c4)cc3)n2)cc1OC
Staphylococcus aureus
  MIC: > 64 µg/mL
[1]
  MIC: 8 µg/mL (≈ 17.4 µM)

## COc1ccc(-c2ccn(-c3ccc(NC(=S)Nc4ccc(F)cc4F)cc3)n2)cc1OC
Staphylococcus aureus
  MIC: > 64 µg/mL
[1]
  MIC: 16 µg/mL (≈ 34.3 µM)

## COc1ccc(-c2cn(-c3ccc(NC(=O)Nc4ccc(F)cc4F)cc3)nn2)cc1OC
Staphylococcus aureus
  MIC: > 64 µg/mL
[1]
  MIC: 8 µg/mL (≈ 17.7 µM)

## Cc1ccc(-c2ccn(-c3ccc(NC(=O)NCc4ccccc4)cc3)n2)cc1
Staphylococcus aureus
  MIC: > 64 µg/mL
[1]
  MIC: > 64 µg/mL

## COc1ccc(-c2ccn(-c3ccc(NC(=O)Nc4ccc(Cl)c(C(F)(F)F)c4)cc3)n2)cc1OC
Staphylococcus aureus
  MIC: 2 µg/mL (≈ 3.87 µM)
[1]
  MIC: 4 µg/mL (≈ 7.74 µM)

## COc1ccc(-c2ccn(-c3ccc(NC(=S)Nc4ccc(C(F)(F)F)cc4)cc3)n2)cc1OC
Staphylococcus aureus
  MIC: 2 µg/mL (≈ 4.01 µM)
[1]
  MIC: 2 µg/mL (≈ 4.01 µM)

## COc1ccc(-c2ccn(-c3ccc(NC(=O)Nc4cc(Cl)ccc4Cl)cc3)n2)cc1OC
Staphylococcus aureus
  MIC: > 64 µg/mL
[1]
  MIC: > 64 µg/mL

## O=C(Nc1ccc(-n2ccc(-c3ccc(Cl)cc3Cl)n2)cc1)Nc1ccc(F)cc1F
Staphylococcus aureus
  MIC: > 64 µg/mL
[1]
  MIC: > 64 µg/mL

## COc1ccccc1NC(=O)Nc1ccc(-n2ccc(-c3ccc(OC)c(OC)c3)n2)cc1
Staphylococcus aureus
  MIC: > 64 µg/mL
[1]
  MIC: 32 µg/mL (≈ 72 µM)

## COc1ccc(-c2ccn(-c3ccc(NC(=O)Nc4ccc(Cl)c(Cl)c4)cc3)n2)cc1
Staphylococcus aureus
  MIC: > 64 µg/mL
[1]
  MIC: 32 µg/mL (≈ 70.6 µM)

## O=C(Nc1ccc(-n2ccc(-c3ccccc3)n2)cc1)Nc1ccc(Cl)c(Cl)c1
Staphylococcus aureus
  MIC: > 64 µg/mL
[1]
  MIC: 64 µg/mL (≈ 151 µM)

## O=C(Nc1ccc(-n2ccc(-c3ccc(Cl)cc3Cl)n2)cc1)Nc1ccc(Cl)c(Cl)c1
Staphylococcus aureus
  MIC: > 64 µg/mL
[1]
  MIC: > 64 µg/mL

## O=C(Nc1ccc(-n2ccc(-c3cccnc3)n2)cc1)Nc1ccc(Cl)c(Cl)c1
Staphylococcus aureus
  MIC: > 64 µg/mL
[1]
  MIC: 16 µg/mL (≈ 37.7 µM)

## COc1ccc(-c2ccn(-c3ccc(NC(=S)Nc4ccccc4)cc3)n2)cc1OC
Staphylococcus aureus
  MIC: > 64 µg/mL
[1]
  MIC: 8 µg/mL (≈ 18.6 µM)

## COc1ccc(NC(=S)Nc2ccc(-n3ccc(-c4ccc(OC)c(OC)c4)n3)cc2)cc1
Staphylococcus aureus
  MIC: > 64 µg/mL
[1]
  MIC: 8 µg/mL (≈ 17.4 µM)

## COc1ccc(-c2ccn(-c3ccc(NC(=S)Nc4cccc(Cl)c4)cc3)n2)cc1OC
Staphylococcus aureus
  MIC: > 64 µg/mL
[1]
  MIC: 16 µg/mL (≈ 34.4 µM)

## COc1ccc(-c2ccn(-c3ccc(NC(=S)Nc4cccc5ccccc45)cc3)n2)cc1OC
Staphylococcus aureus
  MIC: > 64 µg/mL
[1]
  MIC: 16 µg/mL (≈ 33.3 µM)

## COc1ccc(-c2ccn(-c3ccc(NC(=O)Nc4cccc(Cl)c4Cl)cc3)n2)cc1OC
Staphylococcus aureus
  MIC: > 64 µg/mL
[1]
  MIC: 16 µg/mL (≈ 33.1 µM)

## COc1ccc(-c2ccn(-c3ccc(NC(=S)Nc4cc(C(F)(F)F)cc(C(F)(F)F)c4)cc3)n2)cc1OC
Staphylococcus aureus
  MIC: 1 µg/mL (≈ 1.77 µM)
[1]
  MIC: 16 µg/mL (≈ 28.2 µM)

## COc1ccc(-c2ccn(-c3ccc(NC(=S)Nc4ccc(F)cc4)cc3)n2)cc1OC
Staphylococcus aureus
  MIC: > 64 µg/mL
[1]
  MIC: 2 µg/mL (≈ 4.46 µM)

## COc1ccc(-c2ccn(-c3ccc(NC(=S)Nc4ccc(Cl)cc4)cc3)n2)cc1OC
Staphylococcus aureus
  MIC: > 64 µg/mL
[1]
  MIC: 8 µg/mL (≈ 17.2 µM)

## O=C(NCc1ccccc1)Nc1ccc(-n2ccc(-c3cccnc3)n2)cc1
Staphylococcus aureus
  MIC: > 64 µg/mL
[1]
  MIC: 8 µg/mL (≈ 21.7 µM)

## COc1ccc(-c2ccn(-c3ccc(NC(=O)Nc4ccccc4C)cc3)n2)cc1OC
Staphylococcus aureus
  MIC: > 64 µg/mL
[1]
  MIC: 16 µg/mL (≈ 37.3 µM)

## COc1ccc(-c2ccn(-c3ccc(NC(=O)Nc4cccc(Cl)c4)cc3)n2)cc1OC
Staphylococcus aureus
  MIC: 2 µg/mL (≈ 4.46 µM)
[1]
  MIC: 16 µg/mL (≈ 35.6 µM)

## COc1ccc(-c2ccn(-c3ccc(NC(=O)Nc4ccc(Cl)cc4Cl)cc3)n2)cc1OC
Staphylococcus aureus
  MIC: > 64 µg/mL
[1]
  MIC: 16 µg/mL (≈ 33.1 µM)

## COc1ccc(-c2ccn(-c3ccc(NC(=S)NCc4ccccc4)cc3)n2)cc1OC
Staphylococcus aureus
  MIC: > 64 µg/mL
[1]
  MIC: 8 µg/mL (≈ 18 µM)

## COc1ccc(-c2ccn(-c3ccc(NC(=O)Nc4ccccc4)cc3)n2)cc1OC
Staphylococcus aureus
  MIC: > 64 µg/mL
[1]
  MIC: 8 µg/mL (≈ 19.3 µM)

## COc1ccc(-c2ccn(-c3ccc(NC(=S)NC4CCCCC4)cc3)n2)cc1OC
Staphylococcus aureus
  MIC: > 64 µg/mL
[1]
  MIC: 16 µg/mL (≈ 36.6 µM)

## O=C(Nc1ccc(-n2ccc(-c3cccnc3)n2)cc1)Nc1ccc(F)cc1F
Staphylococcus aureus
  MIC: > 64 µg/mL
[1]
  MIC: 8 µg/mL (≈ 20.4 µM)

## COc1ccc(-c2ccn(-c3ccc(NC(=S)Nc4ccc([N+](=O)[O-])cc4)cc3)n2)cc1OC
Staphylococcus aureus
  MIC: > 64 µg/mL
[1]
  MIC: 16 µg/mL (≈ 33.6 µM)

## COc1ccc(-c2ccn(-c3ccc(NC(=S)Nc4cccc(Br)c4)cc3)n2)cc1OC
Staphylococcus aureus
  MIC: 64 µg/mL (≈ 126 µM)
[1]
  MIC: 16 µg/mL (≈ 31.4 µM)

## O=C(NCc1ccccc1)Nc1ccc(-n2ccc(-c3ccc(Cl)cc3)n2)cc1
Staphylococcus aureus
  MIC: > 64 µg/mL
[1]
  MIC: > 64 µg/mL

## COc1ccc(-c2ccn(-c3ccc(NC(=O)NS(=O)(=O)c4ccccc4)cc3)n2)cc1OC
Staphylococcus aureus
  MIC: > 64 µg/mL
[1]
  MIC: 16 µg/mL (≈ 33.4 µM)

## COc1ccc(-c2ccn(-c3ccc(NC(=O)Nc4c(C)cccc4C)cc3)n2)cc1OC
Staphylococcus aureus
  MIC: > 64 µg/mL
[1]
  MIC: > 64 µg/mL

## COc1ccc(-c2ccn(-c3ccc(NC(=S)Nc4ccc(C#N)cc4)cc3)n2)cc1OC
Staphylococcus aureus
  MIC: > 64 µg/mL
[1]
  MIC: 32 µg/mL (≈ 70.2 µM)

## COc1ccc(-c2cn(-c3ccc(NC(=O)Nc4ccc(Cl)c(Cl)c4)cc3)nn2)cc1OC
Staphylococcus aureus
  MIC: 4 µg/mL (≈ 8.26 µM)
[1]
  MIC: > 64 µg/mL

## CCCCCCCNC(=S)Nc1ccc(-n2ccc(-c3ccc(OC)c(OC)c3)n2)cc1
Staphylococcus aureus
  MIC: > 64 µg/mL
[1]
  MIC: 4 µg/mL (≈ 8.84 µM)

## O=C(Nc1ccc(-n2ccc(-c3ccc4ccccc4c3)n2)cc1)Nc1ccc(F)cc1F
Staphylococcus aureus
  MIC: > 64 µg/mL
[1]
  MIC: > 64 µg/mL

## COc1ccc(-c2ccn(-c3ccc(NC(=S)Nc4ccc(C)cc4)cc3)n2)cc1OC
Staphylococcus aureus
  MIC: > 64 µg/mL
[1]
  MIC: 64 µg/mL (≈ 144 µM)

## O=C(NCc1ccccc1)Nc1ccc(-n2ccc(-c3ccc4ccccc4c3)n2)cc1
Staphylococcus aureus
  MIC: > 64 µg/mL
[1]
  MIC: 64 µg/mL (≈ 153 µM)

## COc1ccc(-c2ccn(-c3ccc(NC(=S)Nc4ccc(F)c(Cl)c4)cc3)n2)cc1OC
Staphylococcus aureus
  MIC: > 64 µg/mL
[1]
  MIC: 16 µg/mL (≈ 33.1 µM)

## Cc1ccc(-c2ccn(-c3ccc(NC(=O)Nc4ccc(Cl)c(Cl)c4)cc3)n2)cc1
Staphylococcus aureus
  MIC: > 64 µg/mL
[1]
  MIC: > 64 µg/mL

## Cc1ccc(-c2ccn(-c3ccc(NC(=O)Nc4ccc(F)cc4F)cc3)n2)cc1
Staphylococcus aureus
  MIC: > 64 µg/mL
[1]
  MIC: > 64 µg/mL

## COc1ccc(-c2cn(-c3ccc(NC(=O)NCc4ccccc4)cc3)nn2)cc1OC
Staphylococcus aureus
  MIC: > 64 µg/mL
[1]
  MIC: 16 µg/mL (≈ 37.3 µM)

## COc1ccc(-c2ccn(-c3ccc(NC(=O)NCc4ccccc4)cc3)n2)cc1
Staphylococcus aureus
  MIC: > 64 µg/mL
[1]
  MIC: > 64 µg/mL

## O=C(Nc1ccc(-n2ccc(-c3ccc4ccccc4c3)n2)cc1)Nc1ccc(Cl)c(Cl)c1
Staphylococcus aureus
  MIC: > 64 µg/mL
[1]
  MIC: 64 µg/mL (≈ 135 µM)

## O=C(NCc1ccccc1)Nc1ccc(-n2ccc(-c3ccccc3)n2)cc1
Staphylococcus aureus
  MIC: > 64 µg/mL
[1]
  MIC: > 64 µg/mL
